The values below come from PubChem BioAssay AID1259407 (Chemical Carcinogenesis Research Information System (CCRIS), 2018).

Activity calls are given as the source filed them. No rule for the calls is given here.

The subject of this series is CCRIS mutagenicity, Ames/micronucleus/aberration tests. Description: CCRIS mutagenicity studies.
The mark [1] stands for this setting: Test System: AMES SALMONELLA TYPHIMURIUM, Strain/Indicator: TA98, Metabolic Activation: NONE, Method: STANDARD PLATE.
Setting [2] is: Test System: AMES SALMONELLA TYPHIMURIUM, Strain/Indicator: TA98, Metabolic Activation: RAT, LIVER, S-9, AROCLOR 1254, Method: STANDARD PLATE.
[3] abbreviates: Test System: AMES SALMONELLA TYPHIMURIUM, Strain/Indicator: TA100, Metabolic Activation: NONE, Method: STANDARD PLATE.
Where [4] appears, read: Test System: AMES SALMONELLA TYPHIMURIUM, Strain/Indicator: TA100, Metabolic Activation: RAT, LIVER, S-9, AROCLOR 1254, Method: STANDARD PLATE.
The mark [5] stands for this setting: Test System: AMES SALMONELLA TYPHIMURIUM, Strain/Indicator: TA1535, Metabolic Activation: NONE, Method: STANDARD PLATE.
The mark [6] stands for this setting: Test System: AMES SALMONELLA TYPHIMURIUM, Strain/Indicator: TA1535, Metabolic Activation: RAT, LIVER, S-9, AROCLOR 1254, Method: STANDARD PLATE.
[7] abbreviates: Test System: AMES SALMONELLA TYPHIMURIUM, Strain/Indicator: TA1537, Metabolic Activation: NONE, Method: STANDARD PLATE.
Where [8] appears, read: Test System: AMES SALMONELLA TYPHIMURIUM, Strain/Indicator: TA1537, Metabolic Activation: RAT, LIVER, S-9, AROCLOR 1254, Method: STANDARD PLATE.
[9] abbreviates: Test System: AMES SALMONELLA TYPHIMURIUM, Strain/Indicator: TA1538, Metabolic Activation: NONE, Method: STANDARD PLATE.
Where [10] appears, read: Test System: AMES SALMONELLA TYPHIMURIUM, Strain/Indicator: TA1538, Metabolic Activation: RAT, LIVER, S-9, AROCLOR 1254, Method: STANDARD PLATE.

For `CCOC(=O)CBr`, the mutagenic call is “inactive; negative; authors report equivocal results for structural changes at highest dos” (End Point: IN VITRO CHROMOSOMAL ABERRATIONS, Test System: CHL CELLS, Metabolic Activation: RAT, LIVER, S-9, SODIUM PHENOBARBITAL AND 5,6-BENZOFLAVONE); “inactive; negative” (Test System: AMES SALMONELLA TYPHIMURIUM, Strain/Indicator: TA98, Metabolic Activation: NONE, Method: PREINCUBATION); “inactive; negative” under setting [1]; “inactive; negative” (Test System: AMES SALMONELLA TYPHIMURIUM, Strain/Indicator: TA98, Metabolic Activation: RAT LIVER S-9, PHENOBARBITAL AND BETA-NAPHTHOFLAVONE, Method: PREINCUBATION); “inactive; negative” under setting [2]; “inactive; negative” (Test System: AMES SALMONELLA TYPHIMURIUM, Strain/Indicator: TA100, Metabolic Activation: NONE, Method: PREINCUBATION). Moreover, the mutagenic call is “inactive; negative” under setting [3]; “inactive; negative” (Test System: AMES SALMONELLA TYPHIMURIUM, Strain/Indicator: TA100, Metabolic Activation: RAT LIVER S-9, PHENOBARBITAL AND BETA-NAPHTHOFLAVONE, Method: PREINCUBATION); “inactive; negative” under setting [4]; “inactive; negative” (Test System: AMES SALMONELLA TYPHIMURIUM, Strain/Indicator: TA102, Metabolic Activation: NONE, Method: PREINCUBATION); “inactive; negative” (Test System: AMES SALMONELLA TYPHIMURIUM, Strain/Indicator: TA102, Metabolic Activation: RAT LIVER S-9, PHENOBARBITAL AND BETA-NAPHTHOFLAVONE, Method: PREINCUBATION); “inactive; negative” (Test System: AMES SALMONELLA TYPHIMURIUM, Strain/Indicator: TA104, Metabolic Activation: NONE, Method: PREINCUBATION). The mutagenic call was “active; positive” (Test System: AMES SALMONELLA TYPHIMURIUM, Strain/Indicator: TA104, Metabolic Activation: RAT LIVER S-9, PHENOBARBITAL AND BETA-NAPHTHOFLAVONE, Method: PREINCUBATION); “inactive; negative” (Test System: AMES SALMONELLA TYPHIMURIUM, Strain/Indicator: TA1535, Metabolic Activation: HAMSTER, LIVER, S-9, AROCLOR 1254, Method: STANDARD PLATE); “inactive; negative” (Test System: AMES SALMONELLA TYPHIMURIUM, Strain/Indicator: TA1535, Metabolic Activation: NONE, Method: PREINCUBATION); “inactive; negative” under setting [5]; “inactive; negative” (Test System: AMES SALMONELLA TYPHIMURIUM, Strain/Indicator: TA1535, Metabolic Activation: RAT LIVER S-9, PHENOBARBITAL AND BETA-NAPHTHOFLAVONE, Method: PREINCUBATION); “inactive; negative” under setting [6]. Also, the mutagenic call by setting is: (Test System: AMES SALMONELLA TYPHIMURIUM, Strain/Indicator: TA1537, Metabolic Activation: HAMSTER, LIVER, S-9, AROCLOR 1254, Method: STANDARD PLATE) “inactive; negative”; (Test System: AMES SALMONELLA TYPHIMURIUM, Strain/Indicator: TA1537, Metabolic Activation: NONE, Method: PREINCUBATION) “inactive; negative”; under setting [7], “inactive; negative”; (Test System: AMES SALMONELLA TYPHIMURIUM, Strain/Indicator: TA1537, Metabolic Activation: RAT LIVER S-9, PHENOBARBITAL AND BETA-NAPHTHOFLAVONE, Method: PREINCUBATION) “inactive; negative”; under setting [8], “inactive; negative”; (Test System: AMES SALMONELLA TYPHIMURIUM, Strain/Indicator: TA1538, Metabolic Activation: HAMSTER, LIVER, S-9, AROCLOR 1254, Method: STANDARD PLATE) “inactive; negative”. In addition, the mutagenic call is “inactive; negative” under setting [9]; “inactive; negative” under setting [10]; “inactive; negative” (Test System: E.COLI, Strain/Indicator: WP2UVRA/PKM101, Metabolic Activation: NONE, Method: PREINCUBATION); “active; positive” (Test System: E.COLI, Strain/Indicator: WP2UVRA/PKM101, Metabolic Activation: RAT LIVER S-9, PHENOBARBITAL AND BETA-NAPHTHOFLAVONE, Method: PREINCUBATION); “inactive; negative” (Test System: E.COLI, Strain/Indicator: WP2UVRA, Metabolic Activation: NONE, Method: PREINCUBATION); “inactive; negative” (Test System: E.COLI, Strain/Indicator: WP2UVRA, Metabolic Activation: RAT LIVER S-9, PHENOBARBITAL AND BETA-NAPHTHOFLAVONE, Method: PREINCUBATION). For the same molecule, the mutagenic call was “active; positive. reevaluation of results: inconclusive” (Test System: MOUSE LYMPHOMA, Strain/Indicator: L5178Y (TK+/TK-), Metabolic Activation: NONE, Method: SUSPENSION/PLATE) and “active; positive. reevaluation of results: inconclusive” (Test System: MOUSE LYMPHOMA, Strain/Indicator: L5178Y (TK+/TK-), Metabolic Activation: RAT, LIVER, S-9, AROCLOR 1254, Method: SUSPENSION/PLATE).
Consider `CC(C)c1cc(N)c([N+](=O)[O-])cc1N`, for which the mutagenic call under setting [1] was “inactive; negative”; the mutagenic call under setting [2] was “active; positive”; the mutagenic call under setting [3] was “inactive; negative”; the mutagenic call under setting [4] was “inactive; negative”; the mutagenic call under setting [5] was “inactive; negative”; the mutagenic call under setting [6] was “inactive; negative”. The mutagenic call runs as follows: under setting [7], “inactive; negative”; under setting [8], “inactive; negative”; under setting [9], “inactive; negative”; under setting [10], “active; positive”.
